The source of these data is US5705356A, “Reagent for invitro diagnostic determination of bicarbonate” (Trace Scientific Limited, priority 1993, dated 1998).

The first assay has as its target T1, Glycerol Dehydrogenase (GLY.DH) (Geobacillus stearothermophilus, UniProt P32816).
T1 sequence (P32816 1-370): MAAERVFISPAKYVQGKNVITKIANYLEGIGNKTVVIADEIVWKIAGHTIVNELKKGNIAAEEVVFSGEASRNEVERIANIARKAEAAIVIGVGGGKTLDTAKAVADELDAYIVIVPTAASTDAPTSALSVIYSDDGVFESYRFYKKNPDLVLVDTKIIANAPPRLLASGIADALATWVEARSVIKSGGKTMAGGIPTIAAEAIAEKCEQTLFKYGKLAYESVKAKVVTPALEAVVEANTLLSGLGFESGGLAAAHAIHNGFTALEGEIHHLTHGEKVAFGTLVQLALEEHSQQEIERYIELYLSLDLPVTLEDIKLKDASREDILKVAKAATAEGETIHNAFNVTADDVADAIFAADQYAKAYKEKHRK
The assay is described as follows: Relative activity of substrates with glycerol dehydrogenase (vs glycerol). It counts as biochemical. The settings on record: relative to glycerol (100%).
Description: Alternatively, using Glycerol Dehydrogenase (GLY.DH) as the enzyme, suitable substrates in the reaction [drawing 8] and their activity relative to glycerol (100%) are
As for `CC(O)C(C)O` (centres unmarked) [2,3-Butanediol], the “Relative Activity” value was 52.6%. For `OCCO` [Ethylene glycol], the “Relative Activity” value is listed as 7.8%. Turning to `OCC(O)CCl` (stereo not drawn) [Glycerol-α-monochlorohydrin], the “Relative Activity” value came to 48.5%.

In the case of `OCC(O)CO` [glycerol], the “Relative Activity” value is given as 100%.

In a further assay the target is T2, G-6-P-DH (Saccharomyces cerevisiae, UniProt P11412).
T2 sequence (P11412 1-505): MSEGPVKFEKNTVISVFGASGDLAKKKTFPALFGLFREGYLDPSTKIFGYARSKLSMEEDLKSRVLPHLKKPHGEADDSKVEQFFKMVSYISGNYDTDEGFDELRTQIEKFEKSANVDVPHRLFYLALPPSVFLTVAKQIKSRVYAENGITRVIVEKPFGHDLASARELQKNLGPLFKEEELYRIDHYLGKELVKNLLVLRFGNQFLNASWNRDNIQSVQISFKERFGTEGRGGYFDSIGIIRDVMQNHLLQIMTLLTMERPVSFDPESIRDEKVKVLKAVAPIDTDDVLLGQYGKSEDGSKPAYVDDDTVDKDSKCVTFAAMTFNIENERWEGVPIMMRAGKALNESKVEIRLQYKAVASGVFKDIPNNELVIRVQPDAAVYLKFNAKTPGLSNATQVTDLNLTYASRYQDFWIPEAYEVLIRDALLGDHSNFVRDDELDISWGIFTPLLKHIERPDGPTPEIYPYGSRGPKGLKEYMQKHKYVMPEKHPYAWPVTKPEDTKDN
The assay is described as follows: Relative reactivity of substrates with G-6-P-DH, NADP as coenzyme (vs G-6-P). It counts as biochemical, Yeast. The settings on record: relative to G-6-P-DH/G-6-P pair.
Consider `O=P(O)(O)OC[C@H]1OC(O)C[C@@H](O)[C@@H]1O` (some centres unmarked) [2-deoxyglucose-6-P], for which the relative reactivity is recorded as 18%. Regarding `O=P(O)(O)OC[C@H]1OC(O)[C@H](O)[C@@H](O)[C@H]1O` (some centres unmarked) [galactose-6-P], the relative reactivity was 25%.

As for `N[C@H]1C(O)O[C@H](COP(=O)(O)O)[C@@H](O)[C@@H]1O` (some centres unmarked) [glucosamine-6-P], the relative reactivity came to 2%.

The test system of another assay is L-Lactate Dehydrogenase (LDH). The assay is described as follows: Relative activity of substrates with L-lactate dehydrogenase (vs L-lactate). It counts as biochemical, Lactobacillus sp. The settings on record: relative to L-Lactate.
Description: Wherein, L-Lactate Dehydrogenase (LDH) from Lactobacillus sp. is used as the enzyme in the following reaction, [drawing 10] suitable substrates and their activity relative to L-Lactate are:
With `O=C(O)CC(=O)C(=O)O` [Oxoloacetate], the “Relative Activity” value came to 36%.

For another assay, the target named is T3, 3α-Hydroxysteroid Dehydrogenase (H.DH) (Comamonas testosteroni, UniProt P80702).
T3 sequence (P80702 1-257): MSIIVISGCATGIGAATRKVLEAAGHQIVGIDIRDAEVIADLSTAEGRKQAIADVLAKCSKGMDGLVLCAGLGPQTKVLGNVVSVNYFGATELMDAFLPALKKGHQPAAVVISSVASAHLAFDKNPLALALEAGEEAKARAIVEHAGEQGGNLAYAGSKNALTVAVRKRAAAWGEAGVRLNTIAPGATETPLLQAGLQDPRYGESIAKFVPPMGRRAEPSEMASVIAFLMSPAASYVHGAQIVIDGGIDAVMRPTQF
The assay is described as follows: Relative activity of substrates with 3α-hydroxysteroid dehydrogenase (vs cholic acid). It is filed as biochemical. The settings on record: relative to Cholic Acid. The text has this:
Their activities relative to Cholic Acid are also listed.
`C[C@H](CCC(=O)O)[C@H]1CC[C@H]2[C@@H]3CC[C@@H]4C[C@H](O)CC[C@]4(C)[C@H]3CC[C@]12C` [Lithocholic Acid]: the “Relative Activity” value turned out to be 96%. As for Etiocholic Acid, the “Relative Activity” value stood at 60%.

For the next assay, the target named is T4, L-Alanine Dehydrogenase (A.D) (Lysinibacillus sphaericus, UniProt P17556).
T4 sequence (P17556 1-372): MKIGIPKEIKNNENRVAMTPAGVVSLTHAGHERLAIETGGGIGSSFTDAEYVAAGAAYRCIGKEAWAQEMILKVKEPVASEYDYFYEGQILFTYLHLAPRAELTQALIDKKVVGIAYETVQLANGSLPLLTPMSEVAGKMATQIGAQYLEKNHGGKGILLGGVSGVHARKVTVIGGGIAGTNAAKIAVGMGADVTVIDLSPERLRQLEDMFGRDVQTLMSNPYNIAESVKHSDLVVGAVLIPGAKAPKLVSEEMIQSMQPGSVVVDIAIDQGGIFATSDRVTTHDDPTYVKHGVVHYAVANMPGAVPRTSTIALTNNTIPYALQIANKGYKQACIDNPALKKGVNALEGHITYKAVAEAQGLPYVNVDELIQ
Kind of assay: Relative activity of substrate with L-alanine dehydrogenase (vs L-alanine). It counts as biochemical. The settings on record: relative to L-alanine (100%). The source says:
If L-Alanine Dehydrogenase (A.D) is used as the enzyme in a reaction system similar to that used for Leucine Dehydrogenase, a suitable substrate and its activity relative to L-alanine (100%) is […]
With `C[C@H](N)C(=O)O` [L-alanine], the “Relative Activity” value came out at 100%. Regarding `N[C@@H](CO)C(=O)O` [L-serine], the “Relative Activity” value amounted to 5%.

Another assay has as its system Glucose Dehydrogenase (GLD). Kind of assay: Relative activity of substrates with glucose dehydrogenase (vs D-glucose). It is filed as biochemical. The settings on record: rate of reaction relative to D-glucose (100%), NAD coenzyme.
Description: If glucose dehydrogenase is used as the enzyme, preferred substrates for reduction of the NAD coenzyme and their relative degree of cross reactivity when compared to D-Glucose are:
Take `OC[C@H]1O[C@@H](O)[C@H](O)[C@@H](O)[C@@H]1O` [D-Glucose]: the “Relative Activity” value was found to be 100%. In the case of `O=C(CO)[C@@H](O)[C@H](O)[C@H](O)CO` [D-fructose], the “Relative Activity” value amounted to 0.8%. Consider `OC[C@H]1OC(O)[C@H](O)[C@@H](O)[C@H]1O` (stereo partly drawn) [D-galactose], for which the “Relative Activity” value is 0.1%.

With `OC[C@H]1O[C@@H](O[C@H]2[C@H](O)[C@@H](O)C(O)O[C@@H]2CO)[C@H](O)[C@@H](O)[C@H]1O` (stereo partly drawn) [D-lactose], the “Relative Activity” value worked out at 1.2%.

For the compound `OC[C@H]1OC(O)[C@@H](O)[C@@H](O)[C@@H]1O` (stereo partly drawn) [D-mannose], the “Relative Activity” value amounted to 2.4%. With `OC[C@@H](O)[C@@H](O)[C@H](O)[C@@H](O)CO` [D-sorbitol], the “Relative Activity” value worked out at 0.1%. The same measure, in the same setting: for `O=C(CO)[C@@H](O)[C@H](O)[C@@H](O)CO` [L-sorbose] the value was 0.3%; for `O[C@H]1[C@H](O)[C@@H](O)[C@H](O)[C@@H](O)[C@H]1O` [inositol], 0.2%; for `OC[C@H]1O[C@H](O[C@H]2[C@H](O)[C@@H](O)[C@H](O)O[C@@H]2CO)[C@H](O)[C@@H](O)[C@@H]1O` [maltose], 3.9%. xylose: the “Relative Activity” value is recorded as 8.9%.

A further assay concerns the target T5, Leucine Dehydrogenase (L.D) (Bacillus cereus, UniProt P0A393).
T5 sequence (P0A393 1-366): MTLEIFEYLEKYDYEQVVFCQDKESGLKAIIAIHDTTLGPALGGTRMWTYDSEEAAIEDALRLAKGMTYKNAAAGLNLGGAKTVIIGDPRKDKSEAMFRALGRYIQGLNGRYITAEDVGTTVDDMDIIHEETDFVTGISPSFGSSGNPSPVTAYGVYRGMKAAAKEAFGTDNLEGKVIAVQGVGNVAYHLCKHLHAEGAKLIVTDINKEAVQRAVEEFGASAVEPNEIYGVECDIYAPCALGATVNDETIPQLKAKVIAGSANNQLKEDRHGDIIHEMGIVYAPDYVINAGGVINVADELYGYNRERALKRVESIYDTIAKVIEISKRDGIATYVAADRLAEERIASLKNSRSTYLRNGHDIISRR
Kind of assay: Relative activity of substrates with leucine dehydrogenase (vs L-leucine). To be noted: relative to L-leucine (100%). It counts as biochemical.
Description: Wherein Leucine Dehydrogenase (L.D) is used as the enzyme according to the reaction [drawing 9] suitable substrates and their activity relative to L-leucine (100%) are
On to `N[C@@H](CS)C(=O)O` [L-Cysteine], for which the “Relative Activity” value is 0.3%. As for `CC[C@H](C)[C@H](N)C(=O)O` [L-Isoleucine], the “Relative Activity” value amounted to 58%. Take `CSCC[C@H](N)C(=O)O` [L-Methionine]: the “Relative Activity” value is given as 0.6%.

Turning to `CCCC[C@H](N)C(=O)O` [L-Norleucine], the “Relative Activity” value is recorded as 10%.

For the compound `CCC[C@H](N)C(=O)O` [L-Norvaline], the “Relative Activity” value is on record as 41%. `CC(C)[C@H](N)C(=O)O` [L-Valine]: the “Relative Activity” value worked out at 74%. With `CC(C)C[C@H](N)C(=O)O` [L-leucine], the “Relative Activity” value is listed as 100%.
